Target: T1, Platelet-activating factor acetylhydrolase (Homo sapiens, UniProt Q13093)
T1 sequence (Q13093 whole entry): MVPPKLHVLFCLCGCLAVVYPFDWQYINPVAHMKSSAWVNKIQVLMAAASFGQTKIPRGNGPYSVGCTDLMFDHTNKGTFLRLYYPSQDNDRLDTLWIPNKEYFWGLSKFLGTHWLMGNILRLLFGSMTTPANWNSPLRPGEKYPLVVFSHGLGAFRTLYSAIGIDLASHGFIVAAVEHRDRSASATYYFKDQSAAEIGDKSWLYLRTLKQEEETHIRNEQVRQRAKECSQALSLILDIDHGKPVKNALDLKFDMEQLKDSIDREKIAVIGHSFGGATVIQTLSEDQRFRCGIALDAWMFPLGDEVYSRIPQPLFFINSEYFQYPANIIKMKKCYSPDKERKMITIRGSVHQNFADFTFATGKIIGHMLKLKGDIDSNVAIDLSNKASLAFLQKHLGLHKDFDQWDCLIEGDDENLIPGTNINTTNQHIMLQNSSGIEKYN
Test: Inhibition of human plasma Lp-PLA2 using 2- thio-PAF as substrate incubated for 20 mins prior to substrate addition measured after 1 hr

IC50	SMILES
> 100 µM	COc1cc(NS(=O)(=O)c2ccc(C)cc2)c2ncccc2c1
> 100 µM	CS(=O)(=O)Nc1cccc2c(O)cc(C(=O)NC3CCCCCCCCCCCCC3)nc12
> 100 µM	CCOC(=O)COc1cc(NS(=O)(=O)c2ccc(C)cc2)c2nc(C)ccc2c1
